According to patent US7834009B2, “4-hydroxy-5,6-dihydro-1H-pyridin-2-one compounds” (Anadys Pharmaceuticals, Inc., priority 2007, dated 2010):

Target: HCV NS5B polymerase (Hepatitis C virus genotype 1b, UniProt P26663)
Assay: biochemical
Details: 20 nM enzyme, 0.6 μM GTP, 250 nM 5′biotinylated oligo (rG13)/poly rC, 75 min at 28° C.
Method: Compounds were tested for HCV polymerase inhibition. Assays were performed in a 96-well streptavidin-coated FlashPlate using 20 nM enzyme, 0.5 μCi of [α-^33P]GTP, 0.6 μM GTP, and 250 nM 5′biotinylated oligo (rG13)/poly rC in 20 mM Tris-HCl, pH 7.5, 5 mM MgCl2, 5 mM dithiothreitol, 0.1 g/L bovine serum albumin, and 100 U/mL RNAse inhibitor. The reaction was stopped by aspiration after 75 min at 28° C. and the plate was washed several times. After washing and drying the plate, incorporated radioactivity was counted using a Microbeta scintillation counter. IC50 values were calculated relative to the uninhibited control and inhibition data were fitted to a 4-parameter IC50 equation.

Sequence of HCV NS5B polymerase (P26663 2420-3010): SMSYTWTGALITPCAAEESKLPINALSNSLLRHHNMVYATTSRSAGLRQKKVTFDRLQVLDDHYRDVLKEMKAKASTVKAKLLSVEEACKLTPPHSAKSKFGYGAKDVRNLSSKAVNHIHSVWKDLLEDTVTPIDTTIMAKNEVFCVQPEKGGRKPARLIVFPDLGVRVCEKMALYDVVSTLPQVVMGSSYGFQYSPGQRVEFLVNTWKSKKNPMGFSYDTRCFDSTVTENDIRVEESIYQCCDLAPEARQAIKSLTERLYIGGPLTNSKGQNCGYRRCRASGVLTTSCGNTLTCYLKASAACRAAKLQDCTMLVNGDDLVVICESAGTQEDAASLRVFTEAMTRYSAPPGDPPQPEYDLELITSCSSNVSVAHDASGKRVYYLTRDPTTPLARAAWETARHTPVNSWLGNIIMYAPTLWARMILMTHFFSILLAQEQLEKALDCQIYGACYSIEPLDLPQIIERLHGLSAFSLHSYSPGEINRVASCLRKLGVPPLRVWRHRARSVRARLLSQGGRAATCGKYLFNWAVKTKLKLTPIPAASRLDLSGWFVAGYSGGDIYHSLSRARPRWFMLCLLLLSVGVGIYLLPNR

SMILES | IC50 [nM]
CC1(C)CN(C2CCCC2)C(=O)C(C2=NS(=O)(=O)c3cc(NS(C)(=O)=O)ccc3N2)=C1O [Example 18, N-[3-(1-Cyclopentyl-4-hydroxy-5,5-dimethyl-2-oxo-1,2,5,6-tetrahydro-pyridin-3-yl)-1,1-dioxo-1,4-dihydro-1λ^6-benzo[1,2,4]thiadiazin-7-yl]-methanesulfonamide] | 1000 to 4000
CC#CCC1(C)CN(C2CCCC2)C(=O)C(C2=NS(=O)(=O)c3cc(NS(C)(=O)=O)ccc3N2)=C1O (centres unmarked) [Example 26, N-[3-(5-But-2-ynyl-1-cyclopentyl-4-hydroxy-5-methyl-2-oxo-1,2,5,6-tetrahydro-pyridin-3-yl)-1,1-dioxo-1,4-dihydro-1λ^6-benzo[1,2,4]thiadiazin-7-yl]-methanesulfonamide] | 100 to 1000
CC1(c2ccccc2)CN(C2CCC2)C(=O)C(C2=NS(=O)(=O)c3cc(NS(C)(=O)=O)ccc3N2)=C1O (centres unmarked) [Example 32, N-[3-(1-Cyclobutyl-4-hydroxy-5-methyl-2-oxo-5-phenyl-1,2,5,6-tetrahydro-pyridin-3-yl)-1,1-dioxo-1,4-dihydro-1λ^6-benzo[1,2,4]thiadiazin-7-yl]-methanesulfonamide] | 1000 to 4000
CC(C)CCN1C(=O)C(C2=NS(=O)(=O)c3cc(NS(C)(=O)=O)ccc3N2)=C(O)C[C@@H]1c1ccccc1 [Example 49, N-{3-[4-Hydroxy-1-(3-methyl-butyl)-2-oxo-6(R)-phenyl-1,2,5,6-tetrahydro-pyridin-3-yl]-1,1-dioxo-1,4-dihydro-1λ^6-benzo[1,2,4]thiadiazin-7-yl}-methanesulfonamide] | 100 to 1000
CC(C)CCC1CC(O)=C(C2=NS(=O)(=O)c3cc(NS(C)(=O)=O)ccc3N2)C(=O)N1C1CCCC1 (centres unmarked) [Example 53, N-{3-[1-Cyclopentyl-4-hydroxy-6-(3-methyl-butyl)-2-oxo-1,2,5,6-tetrahydro-pyridin-3-yl]-1,1-dioxo-1,4-dihydro-1λ^6-benzo[1,2,4]thiadiazin-7-yl}-methanesulfonamide] | 1000 to 4000
CC(C)CC1CC(O)=C(C2=NS(=O)(=O)c3cc(NS(C)(=O)=O)ccc3N2)C(=O)N1C1CCCC1 (centres unmarked) [Example 56, N-[3-(1-Cyclopentyl-4-hydroxy-6-isobutyl-2-oxo-1,2,5,6-tetrahydro-pyridin-3-yl)-1,1-dioxo-1,4-dihydro-1λ^6-benzo[1,2,4]thiadiazin-7-yl]-methanesulfonamide] | 1000 to 4000
CC(C)CCC1(COCc2ccccc2)CN(C2CCCC2)C(=O)C(C2=NS(=O)(=O)c3cc(NS(C)(=O)=O)ccc3N2)=C1O (centres unmarked) [Example 58, N-{3-[5-Benzyloxymethyl-1-cyclopentyl-4-hydroxy-5-(3-methyl-butyl)-2-oxo-1,2,5,6-tetrahydro-pyridin-3-yl]-1,1-dioxo-1,4-dihydro-1λ^6-benzo[1,2,4]thiadiazin-7-yl}-methanesulfonamide] | 1000 to 4000

Other lines, results leading:

IC50 [nM] | SMILES
< 100 | CC(C)CCC1(C)C(O)=C(C2=NS(=O)(=O)c3cc(NS(C)(=O)=O)ccc3N2)C(=O)N2CCCC21 (centres unmarked) [Example 5, N-{3-[7-Hydroxy-8-methyl-8-(3-methyl-butyl)-5-oxo-1,2,3,5,8,8a-hexahydro-indolizin-6-yl]-1,1-dioxo-1,4-dihydro-1λ6-benzo[1,2,4]thiadiazin-7-yl}-methanesulfonamide]
< 100 | CC(C)CCC1(C)CN(N2CCCC2)C(=O)C(C2=NS(=O)(=O)c3cc(NS(C)(=O)=O)ccc3N2)=C1O (centres unmarked) [Example 7, N-{3-[4-Hydroxy-5-methyl-5-(3-methyl-butyl)-2-oxo-1-pyrrolidin-1-yl-1,2,5,6-tetrahydro-pyridin-3-yl]-1,1-dioxo-1,4-dihydro-1λ^6-benzo[1,2,4]thiadiazin-7-yl}-methanesulfonamide]
100 to 1000 | CC(C)CCN1CC(C)(C)C(O)=C(C2=NS(=O)(=O)c3cc(NS(C)(=O)=O)ccc3N2)C1=O [Example 11, N-{3-[4-Hydroxy-5,5-dimethyl-1-(3-methyl-butyl)-2-oxo-1,2,5,6-tetrahydro-pyridin-3-yl]-1,1-dioxo-1,4-dihydro-1λ^6-benzo[1,2,4]thiadiazin-7-yl}-methanesulfonamide]
< 100 | CC(C)=CCC1CN(C2CCCC2)C(=O)C(C2=NS(=O)(=O)c3cc(NS(C)(=O)=O)ccc3N2)=C1O (centres unmarked) [Example 22, N-{3-[1-Cyclopentyl-4-hydroxy-5-(3-methyl-but-2-enyl)-2-oxo-1,2,5,6-tetrahydro-pyridin-3-yl]-1,1-dioxo-1,4-dihydro-1λ^6-benzo[1,2,4]thiadiazin-7-yl}-methanesulfonamide]
< 100 | CC(C)(C)CCN1CC(C)(C2CCCC2)C(O)=C(C2=NS(=O)(=O)c3cc(NS(C)(=O)=O)ccc3N2)C1=O (centres unmarked) [Example 30, N-{3-[5-Cyclopentyl-1-(3,3-dimethyl-butyl)-4-hydroxy-5-methyl-2-oxo-1,2,5,6-tetrahydro-pyridin-3-yl]-1,1-dioxo-1,4-dihydro-1λ^6-benzo[1,2,4]thiadiazin-7-yl}-methanesulfonamide]
< 100 | CC(C)CCC1(CO)CN(C2CCCC2)C(=O)C(C2=NS(=O)(=O)c3cc(NS(C)(=O)=O)ccc3N2)=C1O (centres unmarked) [Example 54, N-{3-[1-Cyclopentyl-4-hydroxy-5-hydroxymethyl-5-(3-methyl-butyl)-2-oxo-1,2,5,6-tetrahydro-pyridin-3-yl]-1,1-dioxo-1,4-dihydro-1λ^6-benzo[1,2,4]thiadiazin-7-yl}-methanesulfonamide]
< 100 | CC(C)[C@H]1CC(O)=C(C2=NS(=O)(=O)c3cc(NS(C)(=O)=O)ccc3N2)C(=O)N1Cc1ccc(F)c(Cl)c1 [Example 55, N-{3-[1-(3-Chloro-4-fluoro-benzyl)-4-hydroxy-6(R)-isopropyl-2-oxo-1,2,5,6-tetrahydro-pyridin-3-yl]-1,1-dioxo-1,4-dihydro-1λ^6-benzo[1,2,4]thiadiazin-7-yl}-methanesulfonamide]
